Test results: US7265119B2, “Tartrate salts of 5,8,14-triazatetracyclo[10.3.1.02,11.04.9]-hexadeca-2(11),3,5,7,9-pentaene and pharmaceutical compositions thereof” (Pfizer Inc, priority 2001, dated 2007)
Structures can show the parent of a compound that is named as a salt.

Tests used:
Format in all cases: physicochemical
[1] = solid-state stability and excipient compatibility
hygroscopicity = test: hygroscopicity
Procedure: Further, the Form B forms orthorhombic crystals belonging to the P2(1)2(1)2(1) space group. Form B is further characterized in having an onset of melting at about 215° C. as measured by differential scanning calorimetry at a heating rate of 5 degrees per minute. […] In addition, Form B has a hygroscopicity of approximately 0.2% at 90% relative humidity.

[2] = polymorph stability / interconversion on exposure to relative humidity; details: for stability at RH greater than 60%: experiments at 75% and 87% relative humidity
From the text: Upon filtering off the Form C which precipitates out as a white salt, the Form C salt may be air dried.
Experiments at 23% and 43% RH have verified this phenomena.

[3] = stability of the hydrate under vacuum at moderate temperature; details: for stability (in words): ambient conditions / low humidity
From the text: The L-tartrate salt exists as three possible forms: two anhydrous forms and one hydrate form.

[4] = native pH in aqueous solution
aqueous solubility = details: water, pH 3.3, water

With `c1cnc2cc3c(cc2n1)C1CNCC3C1` [L-tartrate salt, L-tartrate salt of 5,8,14-triazatetracyclo[10.3.1.0^2,11.0^4,9]-hexadeca-2(11),3,5,7,9-pentaene] the solid-state stability [1] was “high solid-state stability”, the inertness towards excipients ([1]; common excipients) was “relative inertness towards common excipients” and the “hygroscopicity (in words)” value (hygroscopicity) was “very slightly hygroscopic”.
For `O=C(O)C(O)C(O)C(=O)O.c1cnc2cc3c(cc2n1)C1CNCC3C1` [Form A′, D-tartrate salt of 5,8,14-triazatetracyclo[10.3.1.0^2,11.0^4,9]-hexadeca-2(11),3,5,7,9-pentaene], the “hygroscopicity compared with the corresponding Form A, B or C of the L-tartrate salt” value (hygroscopicity) was “the same”.
With `O=C(O)C(O)C(O)C(=O)O.c1cnc2cc3c(cc2n1)C1CNCC3C1` [Form C, L-Tartrate Saft Form C of 5,8,14-Triazatetracyclo[10.3.1.0^2,11.0^4,9]-hexadeca-2(11),3,5,7,9-pentaene (Form C)] the “stability at RH greater than 60%” value [2] was “relatively stable over a several month period”, the “behaviour on exposure to less than 50% RH” value ([2]; less than 50% RH, experiments at 23% and 43% RH) was “more slowly dehydrate” and the “time the hydrate maintains its one equivalent of water under vacuum” value ([3]; 45° C. vacuum oven) was at least 24 h. The “stability (in words)” value [3] was “relatively stable under ambient conditions” and the “time after which the hydrate loses water and converts to anhydrous Form B” value ([3]; under vacuum at moderate temperatures) was at least 48 h.
In the case of `c1cnc2cc3c(cc2n1)C1CNCC3C1` [Form B, L-Tartrate Salt of 5,8,14-Triazatetracyclo[10.3.1.0^2,11.0^4,9]-hexadeca-2(11),3,5,7,9-pentaene (Anhydrous Polymorph, Form B)], the “native pH in aqueous solution” value [4] is reported as “about 3.3”, the “stability at RH greater than 60%” value [2] is reported as “relatively stable over a several month period” and the “time for conversion of Form B to Form C” value ([2]; exposed to 100% RH) is reported as at most 2 days. The hygroscopicity (hygroscopicity; at 90% relative humidity) was “approximately 0.2%”, the solubility (aqueous solubility) was about 156 mg/mL and the “stability (in words)” value [3] was “most stable of the polymorphs at low humidity”.
